Assay results as given in ChEMBL document CHEMBL4270557, “Discovery of potent anti-convulsant carbonic anhydrase inhibitors: Design, synthesis, in vitro and in vivo appraisal” (Eur J Med Chem, 2018).

Tests used:
Carbonic anhydrase 1 = Carbonic anhydrase 1 (Homo sapiens, UniProt P00915); assay: Inhibition of human recombinant carbonic anhydrase 1 assessed as CO2 hydration preincubated for 15 mins prior to testing measured for 10 to 100 secs by phenol red dye-based stopped-flow assay
Carbonic anhydrase 2 = Carbonic anhydrase 2 (Homo sapiens, UniProt P00918); assay: Inhibition of human recombinant carbonic anhydrase 2 assessed as CO2 hydration preincubated for 15 mins prior to testing measured for 10 to 100 secs by phenol red dye-based stopped-flow assay
Carbonic anhydrase 9 = Carbonic anhydrase 9 (Homo sapiens, UniProt Q16790); assay: Inhibition of human recombinant carbonic anhydrase 9 assessed as CO2 hydration preincubated for 15 mins prior to testing measured for 10 to 100 secs by phenol red dye-based stopped-flow assay
Carbonic anhydrase 7 = Carbonic anhydrase 7 (Homo sapiens, UniProt P43166); assay: Inhibition of human recombinant carbonic anhydrase 7 assessed as CO2 hydration preincubated for 15 mins prior to testing measured for 10 to 100 secs by phenol red dye-based stopped-flow assay
Mus musculus [1] = assay: Anticonvulsant activity in Swiss albino mouse assessed as protection against subcutaneous PTZ-induced seizures at 30 mg/kg, ip administered 0.5 hrs prior to PTZ-induction relative to control; type: functional
Mus musculus [2] = assay: Anticonvulsant activity in Swiss albino mouse assessed as protection against maximal electroshock-induced seizures at 30 mg/kg, ip administered 3 hrs prior to 50 mA current induction relative to control
Mus musculus [3] = assay: Anticonvulsant activity in Swiss albino mouse assessed as protection against subcutaneous PTZ-induced seizures at 100 mg/kg, ip administered 0.5 hrs prior to PTZ-induction relative to control; type: functional
Mus musculus [4] = assay: Anticonvulsant activity in Swiss albino mouse assessed as protection against maximal electroshock-induced seizures at 100 mg/kg, ip administered 3 hrs prior to 50 mA current induction relative to control; type: functional
Mus musculus [5] = assay: Anticonvulsant activity in Swiss albino mouse assessed as protection against subcutaneous PTZ-induced seizures at 100 mg/kg, ip administered 3 hrs prior to PTZ-induction relative to control; type: functional
Mus musculus [6] = assay: Anticonvulsant activity in Swiss albino mouse assessed as protection against maximal electroshock-induced seizures at 30 mg/kg, ip administered 3 hrs prior to 50 mA current induction relative to control; type: functional
Mus musculus [7] = assay: Anticonvulsant activity in Swiss albino mouse assessed as protection against subcutaneous PTZ-induced seizures at 30 mg/kg, ip administered 3 hrs prior to PTZ-induction relative to control; type: functional
Mus musculus [8] = assay: Anticonvulsant activity in Swiss albino mouse assessed as protection against maximal electroshock-induced seizures at 30 mg/kg, ip administered 0.5 hrs prior to 50 mA current induction relative to control
Mus musculus [9] = assay: Anticonvulsant activity in Swiss albino mouse assessed as protection against maximal electroshock-induced seizures at 100 mg/kg, ip administered 3 hrs prior to 50 mA current induction relative to control
Mus musculus [10] = assay: Anticonvulsant activity in Swiss albino mouse assessed as protection against maximal electroshock-induced seizures at 100 mg/kg, ip administered 0.5 hrs prior to 50 mA current induction relative to control; type: functional
Mus musculus [11] = assay: Anticonvulsant activity in Swiss albino mouse assessed as protection against maximal electroshock-induced seizures at 30 mg/kg, ip administered 0.5 hrs prior to 50 mA current induction relative to control; type: functional
Mus musculus [12] = assay: Anticonvulsant activity in Swiss albino mouse assessed as protection against maximal electroshock-induced seizures at 100 mg/kg, ip administered 0.5 hrs prior to 50 mA current induction relative to control

Sequence of Carbonic anhydrase 7 (P43166 whole entry): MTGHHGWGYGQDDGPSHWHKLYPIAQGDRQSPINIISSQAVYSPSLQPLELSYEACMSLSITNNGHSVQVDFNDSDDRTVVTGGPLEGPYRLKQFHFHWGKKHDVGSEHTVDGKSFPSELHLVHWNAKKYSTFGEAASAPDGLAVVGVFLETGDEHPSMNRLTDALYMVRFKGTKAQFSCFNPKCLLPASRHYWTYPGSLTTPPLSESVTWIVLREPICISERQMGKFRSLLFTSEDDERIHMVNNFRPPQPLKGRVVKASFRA
Sequence of Carbonic anhydrase 1 (P00915 whole entry): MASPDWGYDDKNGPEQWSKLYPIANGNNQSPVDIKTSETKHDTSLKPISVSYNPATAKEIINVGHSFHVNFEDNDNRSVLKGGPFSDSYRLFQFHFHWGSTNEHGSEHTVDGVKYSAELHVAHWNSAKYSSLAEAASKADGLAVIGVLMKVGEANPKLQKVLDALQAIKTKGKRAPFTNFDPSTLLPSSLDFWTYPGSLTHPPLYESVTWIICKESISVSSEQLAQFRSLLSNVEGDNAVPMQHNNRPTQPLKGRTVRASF

SMILES	Ki (Carbonic anhydrase 1)	Ki (Carbonic anhydrase 2)	Ki (Carbonic anhydrase 9)	Ki (Carbonic anhydrase 7)	other results
Cc1ccc(N2CCN(c3ccc(/C=N/Nc4ccc(S(N)(=O)=O)cc4)cc3)CC2)c(C)c1	4.11 µM	553 nM	1740 nM	72 nM	
NS(=O)(=O)c1ccc(N/N=C/c2ccc(N3CCN(c4ccccn4)CC3)cc2)cc1	> 10 µM	4590 nM	235 nM	135 nM	
NS(=O)(=O)c1ccc(C(=O)N/N=C/c2ccc(N3CCN(C(=O)OCc4ccccc4)CC3)cc2)cc1	9.64 µM	1450 nM	1900 nM	121 nM	
NS(=O)(=O)c1ccc(N/N=C/c2ccc(N3CCN(c4ccccc4)CC3)cc2)cc1	7.86 µM	888 nM	1240 nM	98.4 nM	
NS(=O)(=O)c1ccc(C(=O)N/N=C/c2ccc(N3CCN(Cc4ccc5c(c4)OCO5)CC3)cc2)cc1	8.37 µM	962 nM	95.2 nM	751 nM	
NS(=O)(=O)c1ccc(N/N=C/c2ccc(N3CCN(C(=O)OCc4ccccc4)CC3)cc2)cc1	0.92 µM	93.9 nM	1630 nM	11.4 nM	Activity (Mus musculus [1]): 50%; Activity (Mus musculus [2]): 33%; Activity (Mus musculus [3]): 67%; Activity (Mus musculus [4]): 67%; Activity (Mus musculus [5]): 33%; Activity (Mus musculus [6]): 33%; Activity (Mus musculus [7]): 67%; Activity (Mus musculus [8]): 50%; Activity (Mus musculus [9]): 67%; Activity (Mus musculus [10]): 50%; Activity (Mus musculus [11]): 50%; Activity (Mus musculus [12]): 50%
NS(=O)(=O)c1ccc(N/N=C/c2ccc(N3CCN(C(=O)c4ccco4)CC3)cc2)cc1	0.322 µM	30.8 nM	1790 nM	6.2 nM	Activity (Mus musculus [1]): 33%; Activity (Mus musculus [2]): 50%; Activity (Mus musculus [3]): 67%; Activity (Mus musculus [4]): 50%; Activity (Mus musculus [5]): 50%; Activity (Mus musculus [6]): 50%; Activity (Mus musculus [7]): 33%; Activity (Mus musculus [8]): 50%; Activity (Mus musculus [9]): 50%; Activity (Mus musculus [10]): 83%; Activity (Mus musculus [11]): 50%; Activity (Mus musculus [12]): 83%
NS(=O)(=O)c1ccc(N/N=C/c2ccc(N3CCN(C(=O)c4ccccc4)CC3)cc2)cc1	> 10 µM	2790 nM	2490 nM	127 nM	
NS(=O)(=O)c1ccc(N/N=C/c2ccc(N3CCN(c4ncccn4)CC3)cc2)cc1	> 10 µM	8400 nM	2230 nM	607 nM	

Continued, in another order:

Ki (Carbonic anhydrase 1)	Ki (Carbonic anhydrase 2)	Ki (Carbonic anhydrase 9)	Ki (Carbonic anhydrase 7)	SMILES	other results
2.06 µM	963 nM	1840 nM	132 nM	NS(=O)(=O)c1ccc(C(=O)N/N=C/c2ccc(N3CCN(c4ncccn4)CC3)cc2)cc1	
8.16 µM	556 nM	1850 nM	148 nM	NS(=O)(=O)c1ccc(C(=O)N/N=C/c2ccc(N3CCN(c4ccc(C(F)(F)F)cc4)CC3)cc2)cc1	
9.49 µM	686 nM	30.4 nM	78.8 nM	NS(=O)(=O)c1ccc(C(=O)N/N=C/c2ccc(N3CCN(C(=O)c4ccco4)CC3)cc2)cc1	
2.38 µM	559 nM	1270 nM	49.6 nM	NS(=O)(=O)c1ccc(N/N=C/c2ccc(N3CCN(c4ccc(F)cc4)CC3)cc2)cc1	
5.8 µM	822 nM	1960 nM	147 nM	NS(=O)(=O)c1ccc(C(=O)N/N=C/c2ccc(N3CCN(c4ccc(F)cc4)CC3)cc2)cc1	
5.5 µM	308 nM	1050 nM	94.7 nM	NS(=O)(=O)c1ccc(C(=O)N/N=C/c2ccc(N3CCN(C(=O)c4ccccc4)CC3)cc2)cc1	
> 10 µM	4130 nM	276 nM	181 nM	NS(=O)(=O)c1ccc(C(=O)N/N=C/c2ccc(N3CCN(c4ccccc4)CC3)cc2)cc1	
9.47 µM	7520 nM	1930 nM	118 nM	NS(=O)(=O)c1ccc(N/N=C/c2ccc(N3CCN(c4ccc(C(F)(F)F)cc4)CC3)cc2)cc1	
7.1 µM	414 nM	163 nM	41.5 nM	NS(=O)(=O)c1ccc(C(=O)N/N=C/c2ccc(N3CCN(Cc4ccccc4)CC3)cc2)cc1	
> 10 µM	4560 nM	152 nM	126 nM	NS(=O)(=O)c1ccc(C(=O)N/N=C/c2ccc(N3CCN(c4ccccn4)CC3)cc2)cc1	
